Each block holds one molecule with its values, some of them ahead of it. The source made the active and inactive calls.
Key:
[1] = target: 5-hydroxytryptamine receptor 2A (Mus musculus, UniProt P35363); format: functional, cell-based;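 note: CHO-K1 cells with tagged receptor and beta-arrestin; agonist potency measured as compound-induced activation of the receptor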
[2] = target: Voltage-gated inwardly rectifying potassium channel KCNH2 (Homo sapiens, UniProt Q12809); conditions: Potency;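 note: confirmatory quantitative high-throughput screen measuring inhibition of hERG channel activity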
Mu-type opioid receptor = Mu-type opioid receptor (Homo sapiens, UniProt P35372); format: functional, cell-based;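 note: U2OS cells with beta-arrestin recruitment to OPRM1 by beta-gal complementation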
HEK293 [3] = assay: cells; format: functional, cell-based; conditions: Homo sapiens
[4] = target: T1, Nuclear receptor subfamily 0 group B member 1 (Homo sapiens, UniProt P51843); assay: Luminescence-based cell-based high throughput dose response assay for inhibitors of the orphan nuclear receptor subfamily 0, group B, member 1 (DAX1; NR0B1). [Related pubchem assays (depositor defined):AID504766, AID504790]; format: functional
T1 sequence (P51843 whole entry): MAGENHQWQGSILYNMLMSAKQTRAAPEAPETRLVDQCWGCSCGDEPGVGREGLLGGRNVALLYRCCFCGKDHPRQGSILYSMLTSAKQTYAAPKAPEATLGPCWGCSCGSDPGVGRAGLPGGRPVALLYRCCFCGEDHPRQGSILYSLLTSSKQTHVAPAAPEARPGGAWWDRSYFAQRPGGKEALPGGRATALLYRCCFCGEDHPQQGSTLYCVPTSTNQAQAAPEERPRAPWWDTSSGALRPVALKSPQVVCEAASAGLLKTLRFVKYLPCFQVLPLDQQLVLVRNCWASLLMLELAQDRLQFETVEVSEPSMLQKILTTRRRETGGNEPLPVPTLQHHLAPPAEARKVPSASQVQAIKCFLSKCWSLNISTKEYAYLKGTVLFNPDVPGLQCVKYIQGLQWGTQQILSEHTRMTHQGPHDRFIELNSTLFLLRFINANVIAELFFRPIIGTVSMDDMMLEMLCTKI

[5] = target: T2, Calpain-2 catalytic subunit (Sus scrofa, UniProt P43367); assay: pig calpain II inhibitor potency, dose response, biochemical, fluorogenic peptide substrate (AID 1420); format: functional
T2 sequence (P43367 whole entry): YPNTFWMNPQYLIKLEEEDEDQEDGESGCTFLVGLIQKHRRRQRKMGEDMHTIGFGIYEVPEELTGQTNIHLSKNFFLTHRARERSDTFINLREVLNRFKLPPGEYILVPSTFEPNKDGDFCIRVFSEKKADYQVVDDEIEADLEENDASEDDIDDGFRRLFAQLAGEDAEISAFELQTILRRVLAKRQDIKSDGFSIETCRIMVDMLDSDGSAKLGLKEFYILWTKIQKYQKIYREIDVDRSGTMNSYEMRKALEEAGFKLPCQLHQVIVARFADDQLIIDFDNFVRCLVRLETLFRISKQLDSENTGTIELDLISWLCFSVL

Cysteine protease ATG4B = Cysteine protease ATG4B (Homo sapiens, UniProt Q9Y4P1); format: functional;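 note: Fluorescence-based dose-response confirmation assay measuring inhibition of ATG4B activity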
Phospholipase A2 = Phospholipase A2 (Homo sapiens, UniProt P04054); format: functional;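 note: confirmatory dose-response counterscreen on phospholipase A2, testing hits that came from an ultra-high-throughput screen for ATG4B inhibitors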
HEK293 [6] = assay: optical interference in Abeta FP readout, dose response, artefact control for IDE activator project, biochemical, fluorescence polarization (AID 588442); format: functional, cell-based; conditions: Homo sapiens
Insulin-degrading enzyme [7] = target: T3, Insulin-degrading enzyme (Homo sapiens, UniProt P14735); assay: activators of recombinant IDE enzyme, dose response, counter-screen for IDE activator project, biochemical, fluorescence polarization (AID 588681)
T3 sequence (P14735 whole entry): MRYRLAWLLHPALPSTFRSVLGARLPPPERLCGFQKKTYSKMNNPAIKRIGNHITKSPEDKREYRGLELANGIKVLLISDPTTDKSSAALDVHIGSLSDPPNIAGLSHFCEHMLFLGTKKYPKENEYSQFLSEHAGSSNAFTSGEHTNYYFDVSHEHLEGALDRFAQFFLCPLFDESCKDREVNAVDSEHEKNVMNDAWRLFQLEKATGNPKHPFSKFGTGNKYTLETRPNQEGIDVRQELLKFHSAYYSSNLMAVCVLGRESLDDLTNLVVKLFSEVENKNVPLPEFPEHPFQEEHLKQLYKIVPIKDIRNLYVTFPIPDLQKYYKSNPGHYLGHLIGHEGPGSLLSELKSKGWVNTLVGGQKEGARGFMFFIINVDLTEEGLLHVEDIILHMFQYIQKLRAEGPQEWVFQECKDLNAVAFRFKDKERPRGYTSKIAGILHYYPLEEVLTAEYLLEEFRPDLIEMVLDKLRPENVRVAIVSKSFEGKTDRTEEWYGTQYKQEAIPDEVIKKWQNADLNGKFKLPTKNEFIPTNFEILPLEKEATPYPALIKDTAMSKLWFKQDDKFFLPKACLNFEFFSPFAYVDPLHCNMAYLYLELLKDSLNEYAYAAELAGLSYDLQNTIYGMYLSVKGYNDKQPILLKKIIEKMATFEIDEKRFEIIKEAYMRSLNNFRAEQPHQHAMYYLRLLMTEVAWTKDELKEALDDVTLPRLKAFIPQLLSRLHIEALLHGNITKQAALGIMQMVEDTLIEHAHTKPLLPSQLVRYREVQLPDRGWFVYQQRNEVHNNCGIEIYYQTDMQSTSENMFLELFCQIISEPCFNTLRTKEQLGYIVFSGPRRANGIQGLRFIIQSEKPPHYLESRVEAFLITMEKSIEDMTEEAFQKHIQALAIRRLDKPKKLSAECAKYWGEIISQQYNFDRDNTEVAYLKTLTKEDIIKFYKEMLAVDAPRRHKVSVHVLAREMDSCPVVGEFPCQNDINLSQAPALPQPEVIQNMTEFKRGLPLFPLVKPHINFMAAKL

Insulin-degrading enzyme [8] = target: T3, Insulin-degrading enzyme; assay: activators of endogenous IDE in HEK cells, dose response, cell-based, fluorescence polarization (AID 588439); format: functional
HEK293 [9] = assay: HEK cell cytotoxicity by LDH release, dose response, cytotoxicity control for IDE activator project, fluorescence, HEK cells (AID 588440); format: functional, cell-based; conditions: Homo sapiens;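 note: cytotoxicity by LDH release measuring loss of membrane integrity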
[10] = C. albicans growth with fluconazole, confirmation, fluorescence, retest (AID 2467); format: functional, cell-based
[11] = Luminescence Cell-Based Dose Retest to Confirm Inhibitors of Cancer Stem Cells. [Related pubchem assays (depositor defined):AID2717, AID2721]; format: functional; conditions: Homo sapiens
[12] = NIH-3T3 fibroblast cytotoxicity, dose response, cytotoxicity control, cell-based, fluorescence, Alamar Blue, secondary assay (AID 2327); format: functional;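 note: NIH-3T3 mouse fibroblasts cultured with fluconazole at 8 µg/mL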

Phospholipase A2, sequence (P04054 whole entry): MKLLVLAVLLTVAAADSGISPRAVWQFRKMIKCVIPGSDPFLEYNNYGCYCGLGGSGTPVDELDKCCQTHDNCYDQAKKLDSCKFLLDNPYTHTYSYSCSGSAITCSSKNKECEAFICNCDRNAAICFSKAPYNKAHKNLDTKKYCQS
Cysteine protease ATG4B, sequence (Q9Y4P1 whole entry): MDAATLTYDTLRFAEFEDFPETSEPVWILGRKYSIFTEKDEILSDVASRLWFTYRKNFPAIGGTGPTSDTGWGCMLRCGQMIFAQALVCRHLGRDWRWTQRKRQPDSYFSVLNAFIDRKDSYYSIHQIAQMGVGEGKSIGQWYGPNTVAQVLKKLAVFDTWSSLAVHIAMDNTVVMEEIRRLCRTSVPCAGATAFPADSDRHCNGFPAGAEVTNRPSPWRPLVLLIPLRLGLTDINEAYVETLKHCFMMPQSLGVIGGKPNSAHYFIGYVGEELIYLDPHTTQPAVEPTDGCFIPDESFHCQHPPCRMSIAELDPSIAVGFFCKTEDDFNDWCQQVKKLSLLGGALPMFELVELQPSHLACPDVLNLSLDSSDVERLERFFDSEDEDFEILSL
Mu-type opioid receptor, sequence (P35372 whole entry): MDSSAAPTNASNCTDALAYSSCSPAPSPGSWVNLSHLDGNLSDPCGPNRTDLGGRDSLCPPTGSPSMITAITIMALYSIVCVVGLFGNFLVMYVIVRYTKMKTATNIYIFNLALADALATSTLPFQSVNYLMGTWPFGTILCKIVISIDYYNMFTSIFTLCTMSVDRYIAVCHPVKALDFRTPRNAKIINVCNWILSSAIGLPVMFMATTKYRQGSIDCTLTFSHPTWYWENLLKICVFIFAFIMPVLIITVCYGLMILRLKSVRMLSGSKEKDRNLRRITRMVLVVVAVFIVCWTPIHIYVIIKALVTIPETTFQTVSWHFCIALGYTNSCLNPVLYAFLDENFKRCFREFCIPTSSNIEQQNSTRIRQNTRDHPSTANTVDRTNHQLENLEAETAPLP
Voltage-gated inwardly rectifying potassium channel KCNH2, sequence (Q12809 whole entry): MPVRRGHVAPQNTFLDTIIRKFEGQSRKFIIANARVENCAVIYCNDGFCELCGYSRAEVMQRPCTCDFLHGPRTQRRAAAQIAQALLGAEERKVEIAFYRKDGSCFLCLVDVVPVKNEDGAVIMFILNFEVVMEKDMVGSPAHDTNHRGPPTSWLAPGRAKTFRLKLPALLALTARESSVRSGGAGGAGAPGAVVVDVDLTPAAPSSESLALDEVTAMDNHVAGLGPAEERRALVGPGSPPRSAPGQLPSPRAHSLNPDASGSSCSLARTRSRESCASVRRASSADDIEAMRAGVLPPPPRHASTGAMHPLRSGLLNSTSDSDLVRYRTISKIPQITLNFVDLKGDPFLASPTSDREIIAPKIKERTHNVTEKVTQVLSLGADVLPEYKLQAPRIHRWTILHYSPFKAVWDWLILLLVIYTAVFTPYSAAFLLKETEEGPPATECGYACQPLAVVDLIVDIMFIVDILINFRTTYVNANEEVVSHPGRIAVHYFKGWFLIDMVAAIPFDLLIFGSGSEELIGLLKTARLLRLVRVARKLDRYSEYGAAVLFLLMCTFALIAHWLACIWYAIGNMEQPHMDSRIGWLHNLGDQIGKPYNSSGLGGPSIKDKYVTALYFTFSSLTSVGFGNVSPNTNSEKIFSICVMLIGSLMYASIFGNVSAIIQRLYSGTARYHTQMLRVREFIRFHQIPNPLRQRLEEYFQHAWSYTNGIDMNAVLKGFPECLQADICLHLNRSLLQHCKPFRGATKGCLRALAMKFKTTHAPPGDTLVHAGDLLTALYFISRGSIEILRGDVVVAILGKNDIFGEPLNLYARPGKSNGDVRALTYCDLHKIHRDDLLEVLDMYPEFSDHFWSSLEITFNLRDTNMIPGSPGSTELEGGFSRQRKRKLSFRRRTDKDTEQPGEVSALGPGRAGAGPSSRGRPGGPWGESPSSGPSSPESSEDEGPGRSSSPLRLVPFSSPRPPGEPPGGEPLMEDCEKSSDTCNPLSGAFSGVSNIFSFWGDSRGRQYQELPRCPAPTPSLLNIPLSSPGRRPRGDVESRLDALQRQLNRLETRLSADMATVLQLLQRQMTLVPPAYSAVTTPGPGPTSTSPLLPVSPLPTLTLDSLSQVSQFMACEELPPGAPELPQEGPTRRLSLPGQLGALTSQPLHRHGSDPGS
5-hydroxytryptamine receptor 2A, sequence (P35363 whole entry): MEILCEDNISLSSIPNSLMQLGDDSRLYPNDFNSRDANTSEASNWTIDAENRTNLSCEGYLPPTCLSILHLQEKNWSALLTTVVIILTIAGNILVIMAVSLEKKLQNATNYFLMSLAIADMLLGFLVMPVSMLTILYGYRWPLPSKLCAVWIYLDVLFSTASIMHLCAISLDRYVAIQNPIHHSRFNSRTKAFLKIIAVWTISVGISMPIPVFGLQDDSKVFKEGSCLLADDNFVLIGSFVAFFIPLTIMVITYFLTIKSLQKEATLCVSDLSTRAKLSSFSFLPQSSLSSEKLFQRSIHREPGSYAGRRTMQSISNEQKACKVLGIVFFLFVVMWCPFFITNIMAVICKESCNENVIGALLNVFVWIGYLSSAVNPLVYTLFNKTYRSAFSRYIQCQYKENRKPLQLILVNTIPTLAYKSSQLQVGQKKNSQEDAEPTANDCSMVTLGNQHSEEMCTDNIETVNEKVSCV

Structure (SMILES): CCCN1CC[C@@H]2c3cc(O)ccc3CC[C@@H]21
- EC50 [1]: 76.1 µM (inactive)
- AC50 [2]: 35.5 µM (inconclusive)
- EC50 (Mu-type opioid receptor): 92.5 µM (inactive)

Structure (SMILES): O=C(Nc1nc(-c2ccccc2)ns1)c1ccncc1
- IC50 (HEK293 [3]): > 67.5 µM (inactive)
- IC50 [4]: > 67.5 µM (inactive)

- IC50 [5]: 6.14 µM (not active)
- IC50 (Cysteine protease ATG4B): 16.3 µM (active)
- IC50 (Phospholipase A2): 11.2 µM (active)
Structure (SMILES): O=C(COC(=O)c1cc(Cl)ccc1[N+](=O)[O-])NCc1ccc(Cl)cc1Cl

Structure (SMILES): CC(=O)Nc1ccc(N2S(=O)(=O)c3ccccc3S2(=O)=O)cc1
- EC50 (HEK293 [6]): > 54.7 µM (inactive)
- EC50 (Insulin-degrading enzyme [7]): > 54.7 µM (inactive)
- EC50 (Insulin-degrading enzyme [8]): > 54.7 µM (inactive)
- IC50 (HEK293 [9]): > 89.2 µM (inactive)

- IC50 (Cysteine protease ATG4B): 10.8 µM (active)
- IC50 (Phospholipase A2): 7.12 µM (active)
Structure (SMILES): CC(C)(C)n1ncc2c(=O)n(Cc3ccccc3Br)cnc21

Structure (SMILES): Cc1cc(C(=O)NNc2ccc(F)cc2F)no1
- EC50 [10]: > 38 µM (not active)
- IC50 (HEK293 [3]): > 67.5 µM (inactive)
- AC50 [11]: 1.1 µM (active)
- IC50 [4]: > 67.5 µM (inactive)
- EC50 [12]: 2.93 µM (active)
